Patent publication EP4755378A1, “DYRK2 INHIBITORS FOR TREATING TUMOURS WITH THE HYPERACTIVE MAPK/ERK PATHWAY” (Universidad de Córdoba, priority 2023, dated 2025)

Assays:
Format in all cases: cell-based
[1] = tested on: HCT116 cells; experiment: XTT cell viability assay, HCT116 cells; conditions: HCT116 (mutated RAS), 48 hours, Figure 14
[2] = tested on: A549 cells; experiment: XTT cell viability assay, A549 cells; conditions: A549 (mutated RAS), 48 hours, Figure 15
[3] = tested on: HT-29 cells; experiment: XTT cell viability assay, HT-29 cells; conditions: HT-29 (B-RAF V600E), different doses of Dabrafenib, with or without LDN192960 10 µM, 48 hours, Figure 16
[4] = tested on: pERK1/2-T202/T204; experiment: Western-blot of ERK1/2 activation loop phosphorylation in HEK-293T cells; conditions: Dabrafenib 10 µM 24 hours, EGF 50-100 ng/ml 5 minutes, Figure 13A
[5] = tested on: DYRK2; experiment: Western-blot of DYRK2 protein levels in HEK-293T cells; conditions: for DYRK2 levels: HEK-293T transfected with Flag-DYRK2, inhibitor 10 µM for 24 hours, Figure 13B

| Compound | cell viability (tumour survival) ([1]; low doses of Dabrafenib) | cell viability ([1]; very high doses of Dabrafenib) | cell viability (tumour survival) ([2]; low doses of Dabrafenib) | cell viability ([2]; very high doses of Dabrafenib) | cell viability [3] | pathway activation [4] | DYRK2 stabilisation ([5]; HEK-293T transfected with Flag-DYRK2, Dabrafenib 10 µM 24 hours, Figure 13A) | DYRK2 levels [5] |
| --- | --- | --- | --- | --- | --- | --- | --- | --- |
| CC(C)(C)c1nc(-c2cccc(NS(=O)(=O)c3c(F)cccc3F)c2F)c(-c2ccnc(N)n2)s1 [Dabrafenib] | increase in tumour survival compared to the control | slightly reducing cell viability | increase in tumour survival compared to the control | slightly reducing cell viability | dose-dependent decrease in viability | reduction in pathway activation | DYRK2 stabilisation was observed | increasing DYRK2 levels |
| N#CC(=C(/N)Sc1ccccc1N)/C(C#N)=C(\N)Sc1ccccc1N [U0126] |  |  |  |  |  |  |  | increasing DYRK2 levels |
